Reference: patent US12433959B2, “Injectable hydrogels for controlled release of immunomodulatory compounds” (THE BOARD OF TRUSTEES OF THE LELAND STANFORD JUNIOR …, priority 2018, dated 2025)

Assay: Hydrodynamic radius (MALS) and diffusivity of cargo in PBS
Assay type: physicochemical
Details: for diffusivity value, D: corresponding to RH
Protocol: Values closer to 1 indicate more similar diffusivities of the OVA and Poly(I:C) (n=3). […] Values closer to 1 indicate that cargo diffusivity is limited by self-diffusion of the hydrogel (n=3).
OVA's hydrodynamic radius (RH) is 3.2 nm, corresponding to a diffusivity value, D, of 76.6 μm^2/s. Poly(I:C)'s was measured to be much larger, with an RH of 34.2 nm, using multi-angle light scattering (MALS), corresponding to a D value of 7.2 μm^2/s. This difference in size results in OVA having an over 10 times greater diffusivity than Poly(I:C) in PBS (FIG. 3C). […] The measured diffusivities for all experiments can be found in FIG. 16. With a standard injection volume in rodents (100 μL) and the release characteristics of PNP hydrogels, these OVA diffusivities correlate to release timeframes of approximately 2 and 3 weeks, respectively. Further, the ratio of OVA to Poly(I:C) diffusivities (DOVA/DPoly(I:C)) was 3.3 in the 1:5 gel, and only 1.4 in the 2:10 gel (FIG. 3C). When comparing the diffusivity of OVA to the self-diffusion of the hydrogel matrix (DOVA/DGel), which was determined by tracking the diffusivity of HPMC-C12 within the hydrogel, the ratio was 6.5 in the 1:5 gel, but only 4.7 in the 2:10 gel, while the ratio of Poly(I:C) to the hydrogel self-diffusion (DPoly(I:C)/DGel) was around 2 for the 1:5 gel and 3.5 for the 2:10 gel (FIG. 3D). […] The diffusion of OVA, however, is more limited by hydrogel self-diffusion in the 2:10 gel and appears to be small enough to diffuse more freely in the 1:5 gel (FIG. 3B). Accordingly, the diffusivity of both OVA and Poly(I:C) is restricted by the self-diffusion of the hydrogel network in the 2:10 gel and are thus similar to one another, enabling sustained co-delivery of the two cargo, despite their large difference in physicochemical properties.

Molecule	hydrodynamic radius (RH) [nm]	size of Poly(I:C) relative to OVA [times larger]	diffusivity value, D (in PBS) [μm^2/s]	diffusivity of OVA relative to Poly(I:C) (in PBS)
Polyinosinic-polycytidylic acid [Poly(I:C)]	34.2	10	7.2	–
ovalbumin (protein, UniProt P01012 2-386, looked up, commonly used model antigen) Ovalbumin: GSIGAASMEFCFDVFKELKVHHANENIFYCPIAIMSALAMVYLGAKDSTRTQINKVVRFDKLPGFGDSIEAQCGTSVNVHSSLRDILNQITKPNDVYSFSLASRLYAEERYPILPEYLQCVKELYRGGLEPINFQTAADQARELINSWVESQTNGIIRNVLQPSSVDSQTAMVLVNAIVFKGLWEKAFKDEDTQAMPFRVTEQESKPVQMMYQIGLFRVASMASEKMKILELPFASGTMSMLVLLPDEVSGLEQLESIINFEKLTEWTSSNVMEERKIKVYLPRMKMEEKYNLTSVLMAMGITDVFSSSANLSGISSAESLKISQAVHAAHAEINEAGREVVGSAEAGVDAASVSEEFRADHPFLFCIKHIATNAVLFFGRCVSP	3.2	–	76.6	over 10 times greater
